For this experiment, the system named is P388 leukemia ip, CD2F1 mice, survival T/C. The experiment can be described thus: NCI In Vivo Anticancer Drug Screen. Data for tumor model P388 Leukemia (intraperitoneal) in CD2F1 (CDF1) mice. The conditions noted are these: endpoint: median survival time, higher = longer survival. An outline of the steps:
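Mice carrying the transplanted tumor received test compound or vehicle. Survival was recorded in each group, and the value is the treated-group measurement divided by that of the vehicle-treated control group.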

[1] abbreviates: dose: 50.0 mg/kg/injection, schedule: Q01DX005 (ip), vehicle: saline with Tween-80.
Setting [2] is: dose: 50.0 mg/kg/injection, schedule: Q01DX009 (ip), vehicle: saline with Tween-80.
[3] abbreviates: dose: 100.0 mg/kg/injection, schedule: Q01DX009 (ip), vehicle: saline with Tween-80.
Where [4] appears, read: dose: 200.0 mg/kg/injection, schedule: Q01DX009 (ip), vehicle: saline with Tween-80.
Where [5] appears, read: dose: 50.0 mg/kg/injection, schedule: Q01DX009 (ip), vehicle: Klucel (hydroxypropylcellulose) (HPC).
Setting [6] is: dose: 100.0 mg/kg/injection, schedule: Q01DX009 (ip), vehicle: Klucel (hydroxypropylcellulose) (HPC).
Where [7] appears, read: dose: 200.0 mg/kg/injection, schedule: Q01DX009 (ip), vehicle: Klucel (hydroxypropylcellulose) (HPC).
Setting [8] is: dose: 50.0 mg/kg/injection, schedule: Q01DX009 (ip), vehicle: saline.
[9] abbreviates: dose: 100.0 mg/kg/injection, schedule: Q01DX009 (ip), vehicle: saline.
Setting [10] is: dose: 200.0 mg/kg/injection, schedule: Q01DX009 (ip), vehicle: saline.

Several values for one entry are separate records, joined by “and”; a condition that tells them apart may be missing. Identical values can stand only once. Inconclusive results and toxic doses are left out.

As for `CN1C(=O)C(=N[O-])C(=O)N(C)C1=O.CN1C(=O)C(=N[O-])C(=O)N(C)C1=O.CN1C(=O)C(=N[O-])C(=O)N(C)C1=O.[Co+3]`, the T/C by setting is: under setting [1], 100 % of control; (dose: 100.0 mg/kg/injection, schedule: Q01DX005 (ip), vehicle: saline with Tween-80) 119 % of control; (dose: 200.0 mg/kg/injection, schedule: Q01DX005 (ip), vehicle: saline with Tween-80) 107 % of control.
Turning to `CC(C)(C)NC(Cc1ccccc1)=NC1CCCCC1`, the T/C is 103 % of control (dose: 12.5 mg/kg/injection, schedule: Q04DX002 (ip), vehicle: saline) and 101 % of control (dose: 25.0 mg/kg/injection, schedule: Q04DX002 (ip), vehicle: saline).
In the case of `O=C1C=CC(=O)C2=C1CCOC2c1ccccc1` (stereo not drawn), the T/C under setting [1] is 91 % of control.
Consider `CCCC(=O)C(=O)c1ccc(O)c(C)c1O`, for which the T/C reads like this: under setting [2], 101 % of control; under setting [3], 99 % of control; under setting [4], 102 % of control.
Take `COC(=O)C(CC=C(C)C)(CC=C(C)C)C(C)=O`: the T/C was 104 % of control (dose: 100.0 mg/kg/injection, schedule: Q04DX002 (ip), vehicle: saline); 100 % of control (dose: 200.0 mg/kg/injection, schedule: Q04DX002 (ip), vehicle: saline); 113 % of control (dose: 400.0 mg/kg/injection, schedule: Q04DX002 (ip), vehicle: saline).
In the case of `NC(=Nc1ccccc1)N(c1ccccc1)c1nc(=S)ss1`, the T/C is, setting by setting: (dose: 100.0 mg/kg/injection, schedule: Q04DX002 (ip), vehicle: saline with Tween-80) 104 % of control; (dose: 200.0 mg/kg/injection, schedule: Q04DX002 (ip), vehicle: saline with Tween-80) 93 % of control; (dose: 400.0 mg/kg/injection, schedule: Q04DX002 (ip), vehicle: saline with Tween-80) 87 % of control.
Take `C1Cc2c3c(c4c(c2C1)CCC4)CCC3`: the T/C was 91 % of control (dose: 25.0 mg/kg/injection, schedule: Q01DX009 (ip), vehicle: Klucel (hydroxypropylcellulose) (HPC)); 95 % of control under setting [5]; 91 % of control under setting [6]; 100 % of control under setting [7].
Take `O=c1[nH]c2c([N+](=O)[O-])cc(Cl)cc2nc1/C=C(\O)c1ccncc1`: the T/C runs as follows: (dose: 60.0 mg/kg/injection, schedule: Q01DX005 (ip), vehicle: Klucel (hydroxypropylcellulose) (HPC)) 102 % of control; (dose: 120.0 mg/kg/injection, schedule: Q01DX005 (ip), vehicle: Klucel (hydroxypropylcellulose) (HPC)) 99 % of control.
In the case of `c1cc(-c2nn[nH]n2)ccc1NNc1ccc(-c2nn[nH]n2)cc1`, the T/C runs as follows: (dose: 50.0 mg/kg/injection, schedule: Q01DX001 (ip), vehicle: Klucel (hydroxypropylcellulose) (HPC)) 101 % of control; (dose: 100.0 mg/kg/injection, schedule: Q01DX001 (ip), vehicle: Klucel (hydroxypropylcellulose) (HPC)) 105 % of control; (dose: 200.0 mg/kg/injection, schedule: Q01DX001 (ip), vehicle: Klucel (hydroxypropylcellulose) (HPC)) 98 % of control.
In the case of `CC1=C(C)[C@]2(C)C(C)[C@]13Cn1c(=O)n(-c4ccccc4)c(=O)n1[C@@]32C` (stereo partly drawn), the T/C is, setting by setting: (dose: 50.0 mg/kg/injection, schedule: Q01DX005 (ip), vehicle: Klucel (hydroxypropylcellulose) (HPC)) 95 % of control; (dose: 100.0 mg/kg/injection, schedule: Q01DX005 (ip), vehicle: Klucel (hydroxypropylcellulose) (HPC)) 94 % of control; (dose: 200.0 mg/kg/injection, schedule: Q01DX005 (ip), vehicle: Klucel (hydroxypropylcellulose) (HPC)) 100 % of control.
On to `N=c1ncn(C2OC(CO)C(O)C2O)c2nc[nH]c12` (stereo not drawn), for which the T/C is 113 % of control (dose: 6.25 mg/kg/injection, schedule: Q01DX009 (ip), vehicle: Klucel (hydroxypropylcellulose) (HPC)) and 108 % of control (dose: 12.5 mg/kg/injection, schedule: Q01DX009 (ip), vehicle: Klucel (hydroxypropylcellulose) (HPC)).
As for `CNc1n[nH]c(-c2ccccc2)n1`, the T/C by setting is: under setting [5], 101 % of control; under setting [6], 102 % of control; under setting [7], 102 % of control.
Take `C[N+]1=C(/C=C/Nc2ccc3c4c(cccc24)-c2ccccc2-3)C(C)(C)c2ccccc21`: the T/C under setting [2] is 108 % of control, the T/C under setting [3] is 105 % of control and the T/C under setting [4] was 118 % of control.
Consider `Cc1cc2c(cc1C)n1c(=O)n(C)c(=O)c(C#N)c1n2C`, for which the T/C is, setting by setting: (dose: 7.5 mg/kg/injection, schedule: Q01DX005 (ip), vehicle: saline with Tween-80) 100 % of control; (dose: 15.0 mg/kg/injection, schedule: Q01DX005 (ip), vehicle: saline with Tween-80) 101 % of control.
For `NC(Cc1ccccc1)C(=O)OCN1C(=O)C2C3C=CC(C2C1=O)C1C(=O)N(COC(=O)C(N)Cc2ccccc2)C(=O)C31` (stereo not drawn), the T/C is, setting by setting: (dose: 25.0 mg/kg/injection, schedule: Q01DX009 (ip), vehicle: water) 100 % of control; (dose: 50.0 mg/kg/injection, schedule: Q01DX009 (ip), vehicle: water) 104 % of control; (dose: 100.0 mg/kg/injection, schedule: Q01DX009 (ip), vehicle: water) 114 % of control; (dose: 200.0 mg/kg/injection, schedule: Q01DX009 (ip), vehicle: water) 124 % of control.
Take `N#C/C(=N\Nc1ccccc1)C(N)=S`: the T/C reads like this: (dose: 12.5 mg/kg/injection, schedule: Q01DX009 (ip), vehicle: other) 109 % of control; (dose: 25.0 mg/kg/injection, schedule: Q01DX009 (ip), vehicle: other) 93 % of control; (dose: 50.0 mg/kg/injection, schedule: Q01DX009 (ip), vehicle: other) 91 % of control.
`CCOC(=O)C(=CNc1ccc2n[nH]nc2c1)C(=O)OCC`: the T/C by setting is: under setting [5], 100 % of control; under setting [6], 108 % of control.
`Cc1cc(NC(=O)Nc2cccc(C3=NCCN3)c2)ccc1NC(=O)Nc1cccc(C2=NCCN2)c1`: the T/C reads like this: (dose: 100.0 mg/kg/injection, schedule: Q04DX003 (ip), vehicle: saline with Tween-80) 108 % of control; (dose: 200.0 mg/kg/injection, schedule: Q04DX003 (ip), vehicle: saline with Tween-80) 108 % of control; (dose: 400.0 mg/kg/injection, schedule: Q04DX003 (ip), vehicle: saline with Tween-80) 120 % of control.
On to `N#CC(c1ccccc1)C(CC(=O)c1ccccc1)c1ccccc1` (stereo not drawn), for which the T/C is, setting by setting: under setting [3], 86 % of control; under setting [4], 95 % of control; (dose: 400.0 mg/kg/injection, schedule: Q01DX009 (ip), vehicle: saline with Tween-80) 95 % of control.
Take `CC(=O)Nc1ccc(C(=O)/C=N\NC(N)=S)cc1`: the T/C was 94 % of control under setting [2], 86 % of control under setting [3] and 94 % of control under setting [4].
Consider `CCCCOCC1CO1` (stereo not drawn), for which the T/C (dose: 25.0 mg/kg/injection, schedule: Q01DX009 (ip), vehicle: saline with Tween-80) is 100 % of control; the T/C under setting [2] is 100 % of control; the T/C under setting [3] is 95 % of control; the T/C under setting [4] was 90 % of control.
`CCCCCCCCCCCC[S][Sn]([CH2]CCC)([S]CCCCCCCCCCCC)[S]CCCCCCCCCCCC`: the T/C is 87 % of control under setting [8], 99 % of control under setting [9] and 95 % of control under setting [10].
Regarding `Cc1cc2c(c(C#N)c1C)NC(=O)CN=C2c1ccccc1F`, the T/C runs as follows: (dose: 60.0 mg/kg/injection, schedule: Q01DX005 (ip), vehicle: saline with Tween-80) 96 % of control; (dose: 120.0 mg/kg/injection, schedule: Q01DX005 (ip), vehicle: saline with Tween-80) 98 % of control; (dose: 240.0 mg/kg/injection, schedule: Q01DX005 (ip), vehicle: saline with Tween-80) 95 % of control.
In the case of `O=S(=O)(O)SCCCSS(=O)(=O)O`, the T/C under setting [8] is 100 % of control, the T/C under setting [9] is 99 % of control and the T/C under setting [10] was 102 % of control.
In the case of `O=C1C2C3C=CC(C2C(=O)N1COP(=O)(O)O)C1C2C(=O)N(COP(=O)(O)O)C(=O)C2C31` (stereo not drawn), the T/C (dose: 20.0 mg/kg/injection, schedule: Q01DX009 (ip), vehicle: water) is 112 % of control; the T/C (dose: 40.0 mg/kg/injection, schedule: Q01DX009 (ip), vehicle: water) was 112 % of control; the T/C (dose: 80.0 mg/kg/injection, schedule: Q01DX009 (ip), vehicle: water) was 112 % of control and 90 % of control; the T/C (dose: 160.0 mg/kg/injection, schedule: Q01DX009 (ip), vehicle: water) is 165 % of control; the T/C (dose: 240.0 mg/kg/injection, schedule: Q01DX009 (ip), vehicle: water) is 152 % of control.

(Values after PubChem BioAssay AID330 (DTP/NCI, 2004).)
